“And” between values parts separate entries of the source, which are not always exact repeats. Equal entries are not always repeated.
Test system: Botrytis cinerea
Assay: Treatment of wounded strawberries inoculated with Botrytis cinerea (dip, mould growth)
Format: in vivo
Settings: 20° C.
Protocol: Ten fresh, organic strawberries were used per treatment. Each strawberry was wounded with a 0.5 mm long cut and each wound was inoculated with 10 μl of a Botrytis cinerea suspension containing 1×10^5 of spores/ml. […] The antifungal composition also comprised 3.1% (w/w) beeswax, 0.76% (w/w) glycerol, 0.66% (w/w) polyoxyethylene sorbitan monostearate (Tween 60), 0.03% (w/w) methylhydroxyethyl-cellulose (MHEC), 0.02% (w/w) xanthan gum, 0.02% (w/w) anti-foaming agent, 0.15% (w/w) citric acid and 0.01% (w/w) potassium sorbate. The pH of the compositions was 4. A composition without natamycin or procymidone was used as control. The treated strawberries were incubated in a closed box in the dark at 20° C. for 13 days.
During incubation, mould growth on the strawberries was assessed in a twofold manner: (i) the number of moulded strawberries per total of 10 strawberries was counted; and (ii) the antifungal activity (in %) of the individual and combined active ingredients was determined by calculating the reduction in mould growth observed on the strawberries treated with the antifungal composition in comparison to the mould growth on the strawberries treated with the control composition. The expected antifungal activity (E in %) of the combined antifungal composition comprising both active ingredients was calculated according to the Colby equation (Colby, 1967): […]
wherein X and Y are the observed antifungal activities (in %) of the individual active ingredients X and Y, respectively. If the observed antifungal activity (O in %) of the combination exceeds the expected antifungal activity (E in %) of the combination and the synergy factor O/E is thus >1.0, the combined application of the active ingredients leads to a synergistic antifungal effect.
The treated strawberries were assessed on mould growth after 4, 5 and 7 days of incubation according to the two methods described in Example 3.
The treated strawberries were incubated for 9 days and, as of day 5, assessed on mould growth daily. The antifungal activity (in %) of the individual and combined active ingredients was determined according to the method described in Example 3.
During incubation, the treated strawberries were assessed on mould growth according to the two methods described in Example 3.

[1] = 250 ppm natamycin, 250 ppm procymidone or both, day 4
[2] = 250 ppm natamycin, 250 ppm procymidone or both, day 5
[3] = 250 ppm natamycin, 250 ppm procymidone or both, day 6
[4] = 250 ppm natamycin, 250 ppm procymidone or both, day 7
[5] = 250 ppm natamycin, 250 ppm procymidone or both, day 8
[6] = 250 ppm natamycin, 250 ppm procymidone or both, day 9
[7] = 250 ppm natamycin, 250 ppm procymidone or both, day 10
[8] = 250 ppm natamycin, 250 ppm procymidone or both, day 12
[9] = 250 ppm natamycin, 500 ppm procymidone or both, day 5
[10] = 250 ppm natamycin, 500 ppm procymidone or both, day 6
[11] = 250 ppm natamycin, 500 ppm procymidone or both, day 7
[12] = 250 ppm natamycin, 500 ppm procymidone or both, day 8
[13] = 250 ppm natamycin, 500 ppm procymidone or both, day 9
[14] = 500 ppm natamycin, 1000 ppm procymidone or both, day 4
[15] = 500 ppm natamycin, 1000 ppm procymidone or both, day 5
[16] = 500 ppm natamycin, 1000 ppm procymidone or both, day 7
[17] = 500 ppm natamycin, 2000 ppm procymidone or both, day 5
[18] = 500 ppm natamycin, 2000 ppm procymidone or both, day 6
[19] = 500 ppm natamycin, 2000 ppm procymidone or both, day 7
[20] = 500 ppm natamycin, 2000 ppm procymidone or both, day 8
[21] = 500 ppm natamycin, 2000 ppm procymidone or both, day 8-10
[22] = 500 ppm natamycin, 2000 ppm procymidone or both, day 9
[23] = 500 ppm natamycin, 2000 ppm procymidone or both, day 10
[24] = 500 ppm natamycin, 2000 ppm procymidone or both, day 12
[25] = 500 ppm natamycin, 2000 ppm procymidone or both, day 13

| Compound | Number of moulded strawberries/total number of 10 strawberries [1] | Observed antifungal activity O (%) [1] [%] | Number of moulded strawberries/total number of 10 strawberries [2] | Observed antifungal activity O (%) [2] [%] | Number of moulded strawberries/total number of 10 strawberries [3] | Observed antifungal activity O (%) [3] [%] | Number of moulded strawberries/total number of 10 strawberries [4] | Observed antifungal activity O (%) [4] [%] | Number of moulded strawberries/total number of 10 strawberries [5] | Observed antifungal activity O (%) [5] [%] | Number of moulded strawberries/total number of 10 strawberries [6] | Observed antifungal activity O (%) [6] [%] | Observed antifungal activity O (%) [7] [%] | Observed antifungal activity O (%) [8] [%] | Observed antifungal activity O (%) [9] [%] | Observed antifungal activity O (%) [10] [%] | Observed antifungal activity O (%) [11] [%] | Observed antifungal activity O (%) [12] [%] | Observed antifungal activity O (%) [13] [%] | Observed antifungal activity O (%) [14] [%] | further results |
| --- | --- | --- | --- | --- | --- | --- | --- | --- | --- | --- | --- | --- | --- | --- | --- | --- | --- | --- | --- | --- | --- |
| C[C@@H]1C/C=C/C=C/C=C/C=C/[C@H](O[C@@H]2O[C@H](C)[C@@H](O)[C@H](N)[C@@H]2O)C[C@@H]2O[C@](O)(C[C@@H](O)C[C@H]3O[C@@H]3/C=C/C(=O)O1)C[C@H](O)[C@H]2C(=O)O [Natamycin, natamycin] | 4 and 4/10 | 53 | 7 and 7/10 | 34 | 9 and 9/10 | 15 | 10 and 10/10 | 11 | 10 and 10/10 | 10 | 10 and 10/10 | 5 | 3 | 0 | 34 | 15 | 11 | 10 | 5 | 36 | Number of moulded strawberries/total number of 10 strawberries [15]: 9 and 9/10; Observed antifungal activity O (%) [15]: 12%; Number of moulded strawberries/total number of 10 strawberries [16]: 10 and 10/10; Observed antifungal activity O (%) [16]: 7%; Number of moulded strawberries/total number of 10 strawberries [17]: 9 and 9/10; Observed antifungal activity O (%) [17]: 12%; Number of moulded strawberries/total number of 10 strawberries [18]: 9 and 9/10; Observed antifungal activity O (%) [18]: 4%; Number of moulded strawberries/total number of 10 strawberries [19]: 10 and 10/10; Observed antifungal activity O (%) [19]: 7%; Observed antifungal activity O (%) [20]: 5%; Number of moulded strawberries/total number of 10 strawberries [21]: 10 and 10/10; Observed antifungal activity O (%) [22]: 3%; Observed antifungal activity O (%) [23]: 3%; Number of moulded strawberries/total number of 10 strawberries [24]: 10 and 10/10; Observed antifungal activity O (%) [24]: 0%; Observed antifungal activity O (%) [25]: 0% |
| CC12CC1(C)C(=O)N(c1cc(Cl)cc(Cl)c1)C2=O (centres unmarked) [Procymidone, procymidone] | 10 and 10/10 | 58 | 10 and 10/10 | 41 | 10 and 10/10 | 34 | 10 and 10/10 | 31 | 10 and 10/10 | 27 | 10 and 10/10 | 13 | 10 | 5 | 39 | 26 | 20 | 20 | 17 | 69 | Number of moulded strawberries/total number of 10 strawberries [15]: 10 and 10/10; Observed antifungal activity O (%) [15]: 59%; Number of moulded strawberries/total number of 10 strawberries [16]: 10 and 10/10; Observed antifungal activity O (%) [16]: 44%; Number of moulded strawberries/total number of 10 strawberries [17]: 8 and 8/10; Observed antifungal activity O (%) [17]: 63%; Number of moulded strawberries/total number of 10 strawberries [18]: 9 and 9/10; Observed antifungal activity O (%) [18]: 51%; Number of moulded strawberries/total number of 10 strawberries [19]: 10 and 10/10; Observed antifungal activity O (%) [19]: 38%; Observed antifungal activity O (%) [20]: 35%; Number of moulded strawberries/total number of 10 strawberries [21]: 10 and 10/10; Observed antifungal activity O (%) [22]: 23%; Observed antifungal activity O (%) [23]: 13%; Number of moulded strawberries/total number of 10 strawberries [24]: 10 and 10/10; Observed antifungal activity O (%) [24]: 2%; Observed antifungal activity O (%) [25]: 0% |

— US20130324489A1, “NEW ANTIFUNGAL COMPOSITIONS” (DSM IP ASSETS B.V., priority 2011, published 2013)
